Test results as given in publication PMC10762068, “Selective blockade of Cav1.2 (α1C) versus Cav1.3 (α1D) L-type calcium channels by the black mamba toxin calciseptine” (Nature Communications, 2024).
Positions of bridges follow the written chain, without caps; N, C: chain ends. No end group written: not given here.

Columns and labels:
[1] = system: ICav1.2 in SAN myocytes from Cav1.3^−/− mice; test: ICaL, patch clamp, SAN myocytes from Cav1.3-/- mice; format: cell-based, mouse; conditions: for degree of inhibition of ICav1.2 / percentage of ICaL block: step 0 mV, mean ± SEM; for degree of inhibition of ICav1.2: n=6/N=2; for percentage of ICaL block: n=7/N=2; for L-type Ca2+ current density: Cas 1 µM alone or + Nife 3 µM, n=8
Procedure: Hearts from Wild-Type and Cav1.3^−/− mice were removed under general anesthesia consisting of 0.01 mg/g xylazine (2% Rompun; Bayer AG) and 0.1 mg/g ketamine (Imalgène;Merial) and immersed in a pre-warmed (36 °C) Tyrode solution containing (mM): 140 NaCl, 5.4 KCl, 1 MgCl2, 1.8 CaCl2, 5.5 D-glucose, and 5 Hepes (adjusted to pH 7.4 with NaOH). […] SAN tissue was excised and transferred into a low-Ca^2+ solution containing (mM): 140 NaCl, 5.4 KCl, 0.5 MgCl2, 0.2 CaCl2, 1.2 KH2PO4, 50 taurine, 5.5 D-glucose, 1 mg/mL BSA, and 5 Hepes–NaOH (adjusted to pH 6.9 with NaOH) for 5 min. Then, enzymatic digestion was carried out for 20-25 min at 36 °C in the low-Ca^2+ solution containing LiberaseTH Research Grade (0.15 mg/mL; Roche, Mannheim, Germany) and elastase (0.5 mg/mL; Worthington, Lakewood, NJ, USA). Digestion was stopped by washing the SAN in a “Kraftbrühe” (KB) medium containing (mM) 100 K-glutamate, 10 K-aspartate, 25 KCl, 10 KH2PO4, 2 MgSO4, 20 taurine, 5 creatine, 0.5 EGTA, 20 D-glucose, 5 Hepes, and 1 mg/mL BSA (adjusted to pH 7.2 with KOH). Single SAN cells were then dissociated from the SAN tissue by manual agitation using a flame-forged Pasteur’s pipette. To recover the automaticity of the SAN cells, Ca^2+ was gradually reintroduced in the cell’s storage solution to a final concentration of 1.8 mM. SAN cells were then left to rest for 1 h before recordings.
For patch-clamp recordings of SAN myocytes, cells were harvested in custom-made chambers with glass bottoms for cell attachment. Cells were then super-fused with Tyrode’s solution warmed at 36 °C before recording. Action potentials and ionic currents were recorded using an Axon multi-clamp patch-clamp 700B amplifier. Voltage-gated L-type Ca^2+ currents (ICaL) were recorded using standard whole cell patch-clamp configuration. For recording ICaL, we used an extracellular recording solution contained (mM): 135 tetraethylammonium chloride (TEA-Cl), 10 4-aminopyridine (4-AP), 1 MgCl2, 0.03 tetrodotoxin (TTX), 1 g/L Glucose, 2 CaCl2, 10 Hepes, (adjusted to pH = 7.2 with TEAOH). […] Pacemaker activity was recorded by the perforated patch-clamp technique using escin (40 µg/ml). For recording cell automaticity glass pipettes were filled with the intracellular solution contained (mM): 80 K-Aspartate, 50 KCl, 1 MgCl2, 5 HEPES, 2 CaCl2, 5 EGTA, 3 ATP-Na+ salt; pH was adjusted to 7.2 with KOH. Escin was dissolved in sterile H2O and added to the intracellular solution right before each experiment.
In all experiments of cellular electrophysiology, we employed synthetized analog of Cas, commercially available at Latoxan (ID: L8109). The native peptide was purified from the venom of Dendroaspis polylepis purchased from Latoxan, as previoulsly described. The pure peptide was obtained after gel filtration, cation exchange and C18 reversed phase chromatography. Its measured molecular mass (7036.26 Da average) was in accordance with the mass calculated from sequence data (7036.22 Da).

[2] = system: N-type Ca^2+ channel; conditions: cited from earlier work
Description: (§1) Animal venoms constitute an immense reservoir for identification of new toxins and toxin-derived tools for modulating the physiological function of ion channels. In particular, toxins showing three-fingers molecular scaffold class include several cardiotoxic peptides that abound in snake venoms. Three fingers toxin peptides potently block a variety of proteins including nicotinic receptors, acetylcholinesterase, acid-sensitive ion channels (ASIC)[14], as well as cytotoxins that disrupt the lipid membrane. More than 30 years ago, M. Lazdunski ‘s group purified a 60-amino acid three- ...

[3] = system: T-type Ca^2+ channel; conditions: cited from earlier work
Description: as §1

[4] = system: cardiac contractions; conditions: cited from earlier work
Description: as §1

[5] = system: portal vein, thoracic aorta and uterine smooth muscle; conditions: cited from earlier work
Description: as §1

[6] = system: skeletal muscle (Cav1.1) L-type Ca^2+ channel; conditions: cited from earlier work
Description: as §1

[7] = system: voltage sensitive K^+ channels; conditions: cardiac ventricular cells, NlE115 neuroblastoma cells, RINmSF and HIT insulinomas, chicken dorsal root ganglia; cited from earlier work
Description: as §1

[8] = system: voltage sensitive Na^+ channels; conditions: cardiac ventricular cells, NlE115 neuroblastoma cells, RINmSF and HIT insulinomas, chicken dorsal root ganglia; cited from earlier work
Description: as §1

RICYIHKASLPRATKTCVENTCYKMFIRTQREYISERGCGCPTAMWPYQTECCKGDRCNK (disulfide 3-22, 17-39, 41-52, 53-58 (inferred)) [Cas, calciseptine]
degree of inhibition of ICav1.2 ([1]; Cas 300 nM, 0.2 Hz, holding −60 mV): 62 ± 6% | degree of inhibition of ICav1.2 ([1]; Cas 300 nM, 1 Hz, holding −60 mV): 63 ± 6% | degree of inhibition of ICav1.2 ([1]; Cas 300 nM, 5 Hz, holding −60 mV): 58 ± 8% | voltage- or use-dependence of ICav1.2 inhibition ([1]; Cas 300 nM, holding −40 / −60 mV, 0.2, 1, 5 Hz): not voltage- or use-dependent | percentage of ICaL block ([1]; Cas 300 nM, holding −40 mV): 68 ± 3% | percentage of ICaL block ([1]; Cas 300 nM, holding −60 mV): 67 ± 4% | L-type Ca2+ current density ([1]; 0 mV, Ctrl -4.14± 0.56): -0.45± 0.14 pA/pF | L-type Ca2+ current density ([1]; +10 mV, Ctrl -4.69± 0.57): -0.17± 0.14 pA/pF | L-type Ca2+ current density ([1]; +20 mV, Ctrl -3.93± 0.56): -0.13± 0.21 pA/pF | L-type Ca2+ current density ([1]; +40 mV, Ctrl -1.15± 0.37): 0.37± 0.29 pA/pF | L-type Ca2+ current density ([1]; -10 mV, Ctrl -2.49± 0.39): -0.17± 0.07 pA/pF | L-type Ca2+ current density ([1]; -20 mV, Ctrl -1.16± 0.20): -0.08± 0.03 pA/pF | L-type Ca2+ current density ([1]; -25 mV, Ctrl -0.97± 0.21): -0.25± 0.13 pA/pF | block of ICaL ([1]; Cas 1 µM, holding −55 mV, n=8/N=2): totally blocked ICaL | residual ICaL after Cas ([1]; Cav1.3^−/− SAN myocytes after Cas perfusion): No residual ICaL was recorded | effect on N-type Ca2+ channel [2]: without affecting | effect on T-type Ca2+ channel [3]: without affecting | effect on cardiac contractions [4]: completely eliminate cardiac contractions | effect on smooth muscle contraction [5]: abolish all contraction | effect on skeletal muscle (Cav1.1) L-type Ca2+ channel [6]: without affecting | effect on voltage sensitive K+ channels [7]: does not affect | effect on voltage sensitive Na+ channels [8]: does not affect
